# Test results reported in US11046710B2, “Sulfonamide compounds” (DAIICHI SANKYO COMPANY, LIMITED, priority 2016, dated 2021).
# pIC50: −log10 of the molar value.
# Molecular target: human TNAP (Homo sapiens (Human), UniProt P05186)
# Assay: Inhibitory test of TNAP activity (pNPP substrate, p-nitrophenol production)
# Type: biochemical
# Conditions: human TNAP from transfected COS1 culture supernatant, 60 minutes at room temperature
# Description: COS1 cells (DS Pharma Biomedical Co., Ltd.) were transfected with human TNAP (OriGene Technologies, Inc.) using Lipofectamine LTX & Plus reagent (Invitrogen Corp.). On the next day, the medium was replaced with a fresh medium, and the cells were cultured in an incubator for 3 days. After 3 days, the culture supernatant was collected and concentrated by centrifugation at 5000 G for 30 minutes using Amicon 14, 10^4 cut (Merck Millipore). The concentrated culture supernatant was dialyzed against 5 L of 50 mM Tris/200 mM NaCl/1 mM MgCl2/20 μM ZnCl2 twice and used as an enzyme source (enzyme solution). The substrate pNPP (ProteoChem Inc.) was adjusted to 3.1 mM with Milli-Q water, and a solution of each test compound dissolved in dimethyl sulfoxide (DMSO; Wako Pure Chemical Industries, Ltd.) by 6 serial dilutions at a 5-fold common ratio from 100 μM, or DMSO was added thereto at a final concentration of 1% by volume. The enzyme solution adjusted to 2 μg/mL with an assay buffer (200 mM Tris/2 mM MgCl2/0.04 mM ZnCl2/0.01% Tween 20) was added in the same amount of the substrate solution and incubated at room temperature for 60 minutes. Then, the absorbance (ABS: 405 nm) was measured using a microplate reader (model plus 384, Molecular Devices, LLC), and the concentration of produced p-nitrophenol was calculated.
# Chain of human TNAP (P05186 18-524): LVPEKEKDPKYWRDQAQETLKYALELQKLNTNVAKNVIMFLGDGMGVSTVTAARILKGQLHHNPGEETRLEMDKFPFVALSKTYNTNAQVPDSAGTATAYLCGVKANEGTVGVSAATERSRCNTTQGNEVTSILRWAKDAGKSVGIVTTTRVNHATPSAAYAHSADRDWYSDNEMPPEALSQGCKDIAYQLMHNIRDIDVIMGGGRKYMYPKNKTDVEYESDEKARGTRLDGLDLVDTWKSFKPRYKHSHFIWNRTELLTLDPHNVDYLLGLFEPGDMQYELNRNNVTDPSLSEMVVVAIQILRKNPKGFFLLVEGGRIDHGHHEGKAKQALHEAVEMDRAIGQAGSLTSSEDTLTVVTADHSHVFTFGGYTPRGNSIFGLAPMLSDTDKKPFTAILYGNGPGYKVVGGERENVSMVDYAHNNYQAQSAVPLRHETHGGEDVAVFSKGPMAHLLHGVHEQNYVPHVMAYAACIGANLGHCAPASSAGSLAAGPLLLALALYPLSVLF
row,pIC50,Compound
1,8.46,"COc1ccc(Cl)cc1S(=O)(=O)Nc1cnc2c(c1)-c1ccnn1[C@@H](C)CO2 [Example 16, 5-chloro-2-methoxy-N-[(5S)-5-methyl-5,6-dihydropyrazolo[1,5-d]pyrido[3,2-f][1,4]oxazepin-10-yl]benzenesulfonamide]"
2,8.16,"COc1ccc(Cl)cc1S(=O)(=O)Nc1cnc2c(c1)-c1ccnn1[C@H](C)CO2 [Example 17, 5-chloro-2-methoxy-N-[(5R)-5-methyl-5,6-dihydropyrazolo[1,5-d]pyrido[3,2-f][1,4]oxazepin-10-yl]benzenesulfonamide]"
3,8.38,"CCOc1ccc(F)cc1S(=O)(=O)Nc1cnc2c(c1)-c1ccnn1[C@H](C)CO2 [Example 20, 2-ethoxy-5-fluoro-N-[(5R)-5-methyl-5,6-dihydropyrazolo[1,5-d]pyrido[3,2-f][1,4]oxazepin-10-yl]benzenesulfonamide]"
4,8.24,"COc1ncc(Cl)cc1S(=O)(=O)Nc1cnc2c(c1)-c1ccnn1[C@H](C)CO2 [Example 23, 5-chloro-2-methoxy-N-[(5R)-5-methyl-5,6-dihydropyrazolo[1,5-d]pyrido[3,2-f][1,4]oxazepin-10-yl]pyridine-3-sulfonamide]"
5,7.53,"COc1ccc(Cl)cc1S(=O)(=O)Nc1cnc2c(c1)-n1nccc1CCO2 [Example 26, 5-chloro-N-(4,5-dihydropyrazolo[1,5-d]pyrido[2,3-b][1,4]oxazepin-9-yl)-2-methoxybenzenesulfonamide]"
6,7.88,"COc1ccc(Cl)cc1S(=O)(=O)Nc1cnc2c(c1)C(=O)N1CCC[C@H]1CO2 [Example 27, 5-chloro-2-methoxy-N-[(9aS)-5-oxo-8,9,9a,10-tetrahydro-5H,7H-pyrido[3,2-f]pyrrolo[2,1-c][1,4]oxazepin-3-yl]benzenesulfonamide]"
7,8.92,"COc1ccc(Cl)cc1S(=O)(=O)Nc1cnc2c(c1)C(=O)N1CCC[C@@H]1CO2 [Example 28, 5-chloro-2-methoxy-N-[(9aR)-5-oxo-8,9,9a,10-tetrahydro-5H,7H-pyrido[3,2-f]pyrrolo[2,1-c][1,4]oxazepin-3-yl]benzenesulfonamide]"
8,8.15,"COc1ccc(Cl)cc1S(=O)(=O)Nc1cnc2c(c1)C(=O)N1C[C@H](O)C[C@H]1CO2 [Example 29, 5-chloro-N-[(8R,9aS)-8-hydroxy-5-oxo-8,9,9a,10-tetrahydro-5H,7H-pyrido[3,2-f]pyrrolo[2,1-c][1,4]oxazepin-3-yl]-2-methoxybenzenesulfonamide]"
9,9.05,"COc1ccc(Cl)cc1S(=O)(=O)Nc1cnc2c(c1)C(=O)N1C[C@@H](O)C[C@@H]1CO2 [Example 30, 5-chloro-N-[(8S,9aR)-8-hydroxy-5-oxo-8,9,9a,10-tetrahydro-5H,7H-pyrido[3,2-f]pyrrolo[2,1-c][1,4]oxazepin-3-yl]-2-methoxybenzenesulfonamide]"
10,8.92,"COc1ccc(F)cc1S(=O)(=O)Nc1cnc2c(c1)C(=O)N1C[C@@H](O)C[C@@H]1CO2 [Example 31, 5-fluoro-N-[(8S,9aR)-8-hydroxy-5-oxo-8,9,9a,10-tetrahydro-5H,7H-pyrido[3,2-f]pyrrolo[2,1-c][1,4]oxazepin-3-yl]-2-methoxybenzenesulfonamide]"
11,8.80,"O=C1c2cc(NS(=O)(=O)c3cc(F)ccc3OC(F)(F)F)cnc2OC[C@H]2C[C@H](O)CN12 [Example 34, 5-fluoro-N-[(8S,9aR)-8-hydroxy-5-oxo-8,9,9a,10-tetrahydro-5H,7H-pyrido[3,2-f]pyrrolo[2,1-c][1,4]oxazepin-3-yl]-2-(trifluoromethoxy)benzenesulfonamide]"
12,9.05,"COc1ccc(Cl)cc1S(=O)(=O)Nc1cnc2c(c1)C(=O)N1C[C@H](O)C[C@@H]1CO2 [Example 35, 5-chloro-N-[(8R,9aR)-8-hydroxy-5-oxo-8,9,9a,10-tetrahydro-5H,7H-pyrido[3,2-f]pyrrolo[2,1-c][1,4]oxazepin-3-yl]-2-methoxybenzenesulfonamide]"
13,8.82,"COc1ccc(F)cc1S(=O)(=O)Nc1cnc2c(c1)C(=O)N1C[C@H](O)C[C@@H]1CO2 [Example 36, 5-fluoro-N-[(8R,9aR)-8-hydroxy-5-oxo-8,9,9a,10-tetrahydro-5H,7H-pyrido[3,2-f]pyrrolo[2,1-c][1,4]oxazepin-3-yl]-2-methoxybenzenesulfonamide]"
14,8.62,"O=C1c2cc(NS(=O)(=O)c3cc(F)ccc3OC(F)(F)F)cnc2OC[C@H]2C[C@@H](O)CN12 [Example 39, 5-fluoro-N-[(8R,9aR)-8-hydroxy-5-oxo-8,9,9a,10-tetrahydro-5H,7H-pyrido[3,2-f]pyrrolo[2,1-c][1,4]oxazepin-3-yl]-2-(trifluoromethoxy)benzenesulfonamide]"

# Continued, compound first:
row,Compound,pIC50
1,"COc1ccc(Cl)cc1S(=O)(=O)Nc1cnc2c(c1)-c1nnc(C)n1CCO2 [Example 1, 5-chloro-2-methoxy-N-(3-methyl-5,6-dihydropyrido[3,2-f][1,2,4]triazolo[4,3-d][1,4]oxazepin-10-yl)benzenesulfonamide]",8.59
2,"CCc1nnc2n1CCOc1ncc(NS(=O)(=O)c3cc(Cl)ccc3OC)cc1-2 [Example 3, 5-chloro-N-(3-ethyl-5,6-dihydropyrido[3,2-f][1,2,4]triazolo[4,3-d][1,4]oxazepin-10-yl)-2-methoxybenzenesulfonamide]",8.62
3,"COc1ccc(Cl)cc1S(=O)(=O)Nc1cnc2c(c1)-c1nnc(C(C)C)n1CCO2 [Example 5, 5-chloro-2-methoxy-N-[3-(propan-2-yl)-5,6-dihydropyrido[3,2-f][1,2,4]triazolo[4,3-d][1,4]oxazepin-10-yl]benzenesulfonamide]",8.55
4,"COc1ccc(Cl)cc1S(=O)(=O)Nc1cnc2c(c1)-c1nccn1CCO2 [Example 6, 5-chloro-N-(5,6-dihydroimidazo[1,2-d]pyrido[3,2-f][1,4]oxazepin-10-yl)-2-methoxybenzenesulfonamide]",8.23
5,"COc1ccc(Cl)cc1S(=O)(=O)Nc1cnc2c(c1)-c1ccnn1CCO2 [Example 7, 5-chloro-N-(5,6-dihydropyrazolo[1,5-d]pyrido[3,2-f][1,4]oxazepin-10-yl)-2-methoxybenzenesulfonamide]",8.19
6,"CCOc1ccc(F)cc1S(=O)(=O)Nc1cnc2c(c1)-c1ccnn1CCO2 [Example 9, N-(5,6-dihydropyrazolo[1,5-d]pyrido[3,2-f][1,4]oxazepin-10-yl)-2-ethoxy-5-fluorobenzenesulfonamide]",8.47
7,"COCCOc1ccc(F)cc1S(=O)(=O)Nc1cnc2c(c1)-c1ccnn1CCO2 [Example 11, N-(5,6-dihydropyrazolo[1,5-d]pyrido[3,2-f][1,4]oxazepin-10-yl)-5-fluoro-2-(2-methoxyethoxy)benzenesulfonamide]",7.90
8,"COc1ncc(Cl)cc1S(=O)(=O)Nc1cnc2c(c1)-c1ccnn1CCO2 [Example 12, 5-chloro-N-(5,6-dihydropyrazolo[1,5-d]pyrido[3,2-f][1,4]oxazepin-10-yl)-2-methoxypyridine-3-sulfonamide]",8.07
9,"CCOc1ncc(Cl)cc1S(=O)(=O)Nc1cnc2c(c1)-c1ccnn1CCO2 [Example 13, 5-chloro-N-(5,6-dihydropyrazolo[1,5-d]pyrido[3,2-f][1,4]oxazepin-10-yl)-2-ethoxypyridine-3-sulfonamide]",8.29
10,"CCOc1ncc(F)cc1S(=O)(=O)Nc1cnc2c(c1)-c1ccnn1CCO2 [Example 14, N-(5,6-dihydropyrazolo[1,5-d]pyrido[3,2-f][1,4]oxazepin-10-yl)-2-ethoxy-5-fluoropyridine-3-sulfonamide]",8.44
11,"CCOc1ccc(F)cc1S(=O)(=O)Nc1cnc2c(c1)-c1ccnn1[C@@H](C)CO2 [Example 18, 2-ethoxy-5-fluoro-N-[(5S)-5-methyl-5,6-dihydropyrazolo[1,5-d]pyrido[3,2-f][1,4]oxazepin-10-yl]benzenesulfonamide]",8.55
12,"COc1ncc(Cl)cc1S(=O)(=O)Nc1cnc2c(c1)-c1ccnn1[C@@H](C)CO2 [Example 21, 5-chloro-2-methoxy-N-[(5S)-5-methyl-5,6-dihydropyrazolo[1,5-d]pyrido[3,2-f][1,4]oxazepin-10-yl]pyridine-3-sulfonamide]",8.52
13,"CCOc1ncc(F)cc1S(=O)(=O)Nc1cnc2c(c1)-c1ccnn1[C@@H](C)CO2 [Example 24, 2-ethoxy-5-fluoro-N-[(5S)-5-methyl-5,6-dihydropyrazolo[1,5-d]pyrido[3,2-f][1,4]oxazepin-10-yl]pyridine-3-sulfonamide]",8.64
14,"O=C1c2cc(NS(=O)(=O)c3cc(Cl)ccc3OC(F)(F)F)cnc2OC[C@H]2C[C@H](O)CN12 [Example 32, 5-chloro-N-[(8S,9aR)-8-hydroxy-5-oxo-8,9,9a,10-tetrahydro-5H,7H-pyrido[3,2-f]pyrrolo[2,1-c][1,4]oxazepin-3-yl]-2-(trifluoromethoxy)benzenesulfonamide]",9.05
15,"O=C1c2cc(NS(=O)(=O)c3cc(Cl)ccc3OC(F)(F)F)cnc2OC[C@H]2C[C@@H](O)CN12 [Example 37, 5-chloro-N-[(8R,9aR)-8-hydroxy-5-oxo-8,9,9a,10-tetrahydro-5H,7H-pyrido[3,2-f]pyrrolo[2,1-c][1,4]oxazepin-3-yl]-2-(trifluoromethoxy)benzenesulfonamide]",8.85
